SMILES strings stand for the structures.

The values that follow come from US20210179585A1, “CRYSTAL FORM OF ABEMACICLIB MESYLATE, PREPARATION METHOD THEREFOR AND PHARMACEUTICAL COMPOSITION THEREOF” (Hangzhou SoliPharma Co., Ltd., priority 2018, published 2021).

This data set is described as follows: Form stability experiment of crystalline forms (XRD crystalline form test after storage). The data set is classed as physicochemical. The conditions noted are these: for Test result after 30 day (XRD crystalline form): 20 mg placed at 60° C. or at room temperature under dry conditions for 30 days; for form stability on storage (form kept or changed, appearance): one month in a dry environment at room temperature and at 60° C. The method, then:
X-ray powder diffraction (XRPD): performed on a Bruker D8 Advance diffractometer. Samples are tested at room temperature. Testing conditions: 2θ scan range 3 to 40°, step size 0.02° and speed 0.2 s/step.
Form stability experiment of crystalline forms: Placed 20 mg abemaciclib mesylate in Preparation Example 1, abemaciclib mesylate Form 1, Form 2, Form 5, Form 6, and Form 8 of the present invention at 60° C. or at room temperature under dry conditions for 30 days, then carried out XRD crystalline form test.

On to `CCN1CCN(Cc2ccc(Nc3ncc(F)c(-c4cc(F)c5nc(C)n(C(C)C)c5c4)n3)nc2)CC1.CS(=O)(=O)O` [Abemaciclib mesylate, N-(5-((4-ethylpiperazin-1-yl)methyl)pyridin-2-yl)-5-fluoro-4-(4-fluoro-1-isopropyl-2-methyl-1H-benzo[d]imidazol-6-yl)pyrimidin-2-amine methanesulfonate], for which the “Test result after 30 day (XRD crystalline form)” value (from here on “Test result after 30 day”) (methanesulfonate) is “Amorphous”. Further, the “form stability on storage (form kept or changed, appearance)” value reads like this: (listed as amorphos abemaciclib mesylate, methanesulfonate) “weak crystalline state and discoloration appeared”; (listed as amorphous abemaciclib mesylate, methanesulfonate) “weak crystalline state and discoloration appeared”.
Turning to `CCN1CCN(Cc2ccc(Nc3ncc(F)c(-c4cc(F)c5nc(C)n(C(C)C)c5c4)n3)nc2)CC1.CS(=O)(=O)O` [Abemaciclib mesylate Form 5, N-(5-((4-ethylpiperazin-1-yl)methyl)pyridin-2-yl)-5-fluoro-4-(4-fluoro-1-isopropyl-2-methyl-1H-benzo[d]imidazol-6-yl)pyrimidin-2-amine methanesulfonate], where the note is “listed as Form 5, methanesulfonate”, the “Test result after 30 day” value is listed as “still kept their original crystalline forms”. Further, under “methanesulfonate”, the “Test result after 30 day” value was “Form 5” and the “form stability on storage (form kept or changed, appearance)” value was “kept its form unchanged”.
Take `CCN1CCN(Cc2ccc(Nc3ncc(F)c(-c4cc(F)c5nc(C)n(C(C)C)c5c4)n3)nc2)CC1.CS(=O)(=O)O` [Abemaciclib mesylate Form 6, N-(5-((4-ethylpiperazin-1-yl)methyl)pyridin-2-yl)-5-fluoro-4-(4-fluoro-1-isopropyl-2-methyl-1H-benzo[d]imidazol-6-yl)pyrimidin-2-amine methanesulfonate]: for the setting “listed as Form 6, methanesulfonate”, the “Test result after 30 day” value is “still kept their original crystalline forms”. For the same compound, where the note is “methanesulfonate”, the “Test result after 30 day” value is given as “Form 6” and the “form stability on storage (form kept or changed, appearance)” value is on record as “kept its form unchanged”.
Consider `CCN1CCN(Cc2ccc(Nc3ncc(F)c(-c4cc(F)c5nc(C)n(C(C)C)c5c4)n3)nc2)CC1.CS(=O)(=O)O` [Abemaciclib mesylate Form 1, N-(5-((4-ethylpiperazin-1-yl)methyl)pyridin-2-yl)-5-fluoro-4-(4-fluoro-1-isopropyl-2-methyl-1H-benzo[d]imidazol-6-yl)pyrimidin-2-amine methanesulfonate], for which, under “listed as Form 1, methanesulfonate”, the “Test result after 30 day” value was “still kept their original crystalline forms”. Moreover, where the note is “methanesulfonate”, the “Test result after 30 day” value is listed as “Form 1” and the “form stability on storage (form kept or changed, appearance)” value is listed as “kept its form unchanged”.
Consider `CCN1CCN(Cc2ccc(Nc3ncc(F)c(-c4cc(F)c5nc(C)n(C(C)C)c5c4)n3)nc2)CC1.CS(=O)(=O)O` [Abemaciclib mesylate Form 2, N-(5-((4-ethylpiperazin-1-yl)methyl)pyridin-2-yl)-5-fluoro-4-(4-fluoro-1-isopropyl-2-methyl-1H-benzo[d]imidazol-6-yl)pyrimidin-2-amine methanesulfonate], for which the “Test result after 30 day” value is on record as “still kept their original crystalline forms” (listed as Form 2, methanesulfonate) and “Form 2” (methanesulfonate). The “form stability on storage (form kept or changed, appearance)” value (methanesulfonate) is reported as “kept its form unchanged”.
Take `CCN1CCN(Cc2ccc(Nc3ncc(F)c(-c4cc(F)c5nc(C)n(C(C)C)c5c4)n3)nc2)CC1.CS(=O)(=O)O` [Abemaciclib mesylate Form 8, N-(5-((4-ethylpiperazin-1-yl)methyl)pyridin-2-yl)-5-fluoro-4-(4-fluoro-1-isopropyl-2-methyl-1H-benzo[d]imidazol-6-yl)pyrimidin-2-amine methanesulfonate]: the “Test result after 30 day” value (listed as Form 8, methanesulfonate) was “still kept their original crystalline forms”. In addition, for the setting “methanesulfonate”, the “Test result after 30 day” value is “Form 8” and the “form stability on storage (form kept or changed, appearance)” value is listed as “kept its form unchanged”.
